Experimental data published in patent US20170151266A1, “METHODS AND COMPOSITIONS FOR ENHANCED DRUG DELIVERY TO THE EYE AND EXTENDED DELIVERY FORMULATIONS” (THE REGENTS OF THE UNIVERSITY OF COLORADO, A BODY, priority 2011, published 2017).
“And” between values parts separate entries of the source, which are not always exact repeats. Equal values may be shown once. One block for each molecule: values may come before it.

Key:
[1] = Aqueous solubility (Solaq) listed in physicochemical property tables; conditions: pH 7.4, 25° C.
[2] = In vivo delivery of bevacizumab in rats, ocular fluorophotometry after intravitreal injection; design: species or system rat; conditions: day 15
Procedure: Rats were anesthetized by intraperitoneal injection of ketamine (35 mg/kg)/xylazine (5 mg/kg) and once the rats were under anesthesia, betadine solution was applied on the eye surface, and intravitreal injections were made using a 30-G needle. […] Baseline fluorescence values of eyes were monitored before injecting the formulations. At each time point, three fluorometric scans were taken and the mean value was used.

[3] = In vitro transport across bovine cornea
Text: (§1) Freshly excised bovine eyes procured from a local slaughter house were used for all in vitro transport studies. Fatty or adherent tissue all around the eye is removed first. Cornea and conjunctiva were then removed. For isolation of sclera and choroid-RPE (CRPE), the anterior segment of the eye was removed with a circumferential cut below the limbus. The eye was cut into two halves along the geometric axis, a line joining the anterior pole (corneal center) and the posterior pole (center of the scleral curve), and the vitreous was removed. Neural retina was removed by exposing the eyecup to isotonic assay buffer at pH 7.4. Equatorial region of the remaining sclera-choroid-RPE (SCRPE) was used as is for SCRPE transport studies. All transport studies for celecoxib were performed in presence of 5% HP-β-CD. […] Drug solutions were prepared in the following manner: Celecoxib (100 μg/ml) in presence of 5% HP-β-CD was made after triturating celecoxib with HP-β-CD in a pestle-mortar followed by addition of assay buffer. The mixture was stirred for 24 h. Before use, the clear solution was filtered through 0.2 μ filter. […] All transport experiments were performed for 6 h at 37° C. Samples were collected at regular time intervals from the receiver side with replacement with fresh assay buffer (pH 7.4). Transport studies with all solutes were performed in A to B direction meaning outward to inward (eg. sclera towards choroid-RPE) movement of the solute was measured. […] Samples from all the transport studies were analyzed on LC-MS/MS.

[4] = In vitro transport across bovine conjunctiva
Text: Freshly excised bovine eyes procured from a local slaughter house were used for all in vitro transport studies. Fatty or adherent tissue all around the eye is removed first. Cornea and conjunctiva were then removed. For isolation of sclera and choroid-RPE (CRPE), the anterior segment of the eye was removed with a circumferential cut below the limbus. The eye was cut into two halves along the geometric axis, a line joining the anterior pole (corneal center) and the posterior pole (center of the scleral curve), and the vitreous was removed. Neural retina was removed by exposing the eyecup to isotonic assay buffer at pH 7.4. Equatorial region of the remaining sclera-choroid-RPE (SCRPE) was used as is for SCRPE transport studies. All transport studies for celecoxib were performed in presence of 5% HP-β-CD. […] Drug solutions were prepared in the following manner: Celecoxib (100 μg/ml) in presence of 5% HP-β-CD was made after triturating celecoxib with HP-β-CD in a pestle-mortar followed by addition of assay buffer. The mixture was stirred for 24 h. Before use, the clear solution was filtered through 0.2 μ filter. […] Transport studies with all solutes were performed in A to B direction meaning outward to inward (eg. sclera towards choroid-RPE) movement of the solute was measured. […] Samples from all the transport studies were analyzed on LC-MS/MS.

[5] = In vitro transport across bovine sclera-choroid-RPE (celecoxib series)
Text: as §1

[6] = tested on: blood retinal barrier leakage; conditions: diabetic rats; eye drops twice daily for 60 days; C-SA 0.2% w/v, C-SA-T 1.0% w/v
Procedure: The animals were divided into four groups.
Plasma samples were stored at −80° C.

[7] = for binding/association constant (K, Ka) with melanin: 1 mg/ml melanin suspension in PBS (pH 7.4), 37° C., celecoxib 2 μg/ml, pro-drugs 250 μg/ml
[8] = tested on: blood retinal barrier leakage; conditions: diabetic rats; eye drops twice daily for 60 days; C-SA 0.2% w/v, C-SA-T 1.0% w/v; remark: listed apart in the source
Procedure: After overnight fasting for 12-16 h, an intraperitoneal injection of 30 mg/ml solution of streptozotocin in 10 mM citrate buffer (pH 4.5) was administered (60 mg/kg body weight) to induce diabetes. After 3-4 h of streptozotocin injection, animals were put on regular diet and 24 h after streptozotocin injection, blood sample (5-10 μl) was collected via tail vein. The blood glucose levels in the animals were determined with a glucose monitor (One Touch; Life Scan Inc., Milpitas, Calif.). Animals with blood glucose levels greater than 250 mg/dL were considered diabetic. The animals were divided into four groups. […] Treatment was started immediately after diabetes induction. […]
Retinal FITC-Dextran Leakage: BN rats from each group were used for the assessment of FITC-dextran leakage. […] The relative FITC-dextran fluorescence units in 1 ml of supernatant were measured using a spectrofluorometer set at an excitation wavelength of 483 nm and an emission wavelength of 538 nm. Fluorescence of blank PBS was also
measured for subtraction from each sample reading. Final concentration of FITC-dextran was expressed as μg/g tissue. […] 20 μ (˜20 mg) of plasma was diluted to 1 ml (50 times dilution) with PBS for quantification under the linear range of the standard samples. […] The amount of FITC-dextran leakage in to the ocular tissues was calculated using the following equation, after correcting for dilutions.

retinal leukostasis = conditions: diabetic rats; eye drops twice daily for 60 days; C-SA 0.2% w/v, C-SA-T 1.0% w/v
Procedure: After overnight fasting for 12-16 h, an intraperitoneal injection of 30 mg/ml solution of streptozotocin in 10 mM citrate buffer (pH 4.5) was administered (60 mg/kg body weight) to induce diabetes. After 3-4 h of streptozotocin injection, animals were put on regular diet and 24 h after streptozotocin injection, blood sample (5-10 μl) was collected via tail vein. The blood glucose levels in the animals were determined with a glucose monitor (One Touch; Life Scan Inc., Milpitas, Calif.). Animals with blood glucose levels greater than 250 mg/dL were considered diabetic. The animals were divided into four groups. […] Treatment was started immediately after diabetes induction. Both eyes were dosed twice daily for 60 days in group 2, 3 and 4 with their respective treatment. Animals in groups 2-4 were sacrificed at the end of 2 months. Normal animals in group 1 were sacrificed immediately after acclimatization in the animal facility. For each of the three assays, namely, FITC-Dextran leakage, vitreous-to-plasma protein ratio, and leukostasis, we used 4 animals from each of the four groups mentioned above.
BN rats from each group were used for the assessment of adherent leukocytes. At 1 hour after last dose on day 61, rats were sacrificed for ex-vivo retinal leukostasis assay. First, the animals were anesthetized with ketamine (80 mg/kg) and xylazine (12 mg/kg) administered intraperitoneally. […]

[9] = In vitro transscleral transport of budesonide/budesonide pro-drugs; assay type: in vitro ADME, bovine; conditions: sclera to RPE direction (A to B); 6 h; 37° C.
Text: Freshly excised bovine eyes were used in all studies. […] Equatorial region of the remaining sclera-choroid-[…]) was used as is for SCRPE transport studies. […] Isotonic assay buffer (pH 7.4) with the following composition was used during the entire tissue isolation procedure and transport study: […] Two hundred microliters of sample was collected from the receiver side at specific time intervals and replenished with fresh buffer. The drug/pro-drug content in the receiver and donor samples was analyzed using an LC-MS/MS method.

ARPE19 cells = conditions: at nanomolar concentrations, glucocorticoid-receptor mediated; cited from earlier work
[10] = 10 μl eye drop, 2 mg/ml; 1 h
Procedure: At the end of 1 h, the animals were euthanized and the eyes were enucleated. Periocular tissue and plasma samples were collected.
Sample processing: Acetonitrile precipitation method was used for drug extraction from the tissues. Briefly, eyes from each eye drop study were dissected for tissue isolation. Tissues were homogenized in 250 μl water (pH 7.4 adjusted with 5 mM ammonium acetate) containing indoprofen as internal standard at a concentration of 500 ng/ml (1000 ng/ml stock was made). Similar volume of acetonitrile was added and mixed well by vortexing for 30 minutes. Samples were centrifuged at 15,000 rpm for 30 minutes. Supernatant was collected for LC-MS/MS analysis.
Total run time was 5.5 min.

[11] = Pharmacokinetic model of budesonide succinate transport; design: species or system bovine; conditions: PK model, A to B in presence of inhibitor (FIG. 4A)
Text: Circles on left side (5 BSA; 6 B) represent the donor chamber whereas circles on right side (7 BSA; 8 B) represent the receiver chamber for BSA transport in A to B direction. 6 B and 8 B were included and represent budesonide formed/transported during the course of transport study. A separate compartment was included to account for the pro-drug/parent drug loss due to tissue absorption. K5>0 represents rate constant for drug loss into the tissue, K5>6 and K7>8 represent rate constants for pro-drug conversion into parent drug on donor and receiver side respectively. […] K5>7 Act represent active transport rate constant and contribution (0.5%) of active diffusion in BSA transport.
The model was developed in such a way that it accounted for transport of pro-drug from the donor to the receiver side, transport of parent drug formed in the donor chamber to the receiver side over the period of transport study, loss of pro-drug/drug into the tissues and any backward transport from the receiver to the donor side. The transport rate constants for parent drug and pro-drug were calculated from the cumulative percentage transport values. Rate constant for conversion of pro-drug to the parent drug was calculated from the percentage of the pro-drug and parent drug formed. Model was run with the dose amounts observed in the donor and receiver sides after 6 h transport studies. […]

[12] = Ex vivo transscleral delivery after posterior subconjunctival injection in euthanized rats; design: species or system Brown Norway (BN) rats
Procedure: All animals were handled according to the ARVO statement for the use of Animals in Ophthalmic and Vision Research. […] Drug suspensions were shaken before each posterior subconjunctival injection. Rats were divided into two groups. […] Twenty-five microliters of budesonide suspension was injected using a 30 G needle in the posterior subconjunctival space of one eye of each animal and the other eye was not treated. At the end of 1 h, eyes were enucleated and immediately frozen in dry ice and isopentane bath. All samples were stored at −80 ° C. until LCMS/MS analysis. […] At the end of 1 h, the eyes were enucleated and frozen in a similar manner as above until analysis. Periocular tissue samples were also collected from both the groups at the end of the study. Different ocular tissues including sclera, choroid-RPE, retina, and vitreous were isolated and analyzed for drug levels.

[13] = end of 6 h, 37° C., 100 μg/ml, celecoxib in 5% HP-β-CD
[14] = Group 2, 25 μl of 1 mg/ml suspension, posterior subconjunctival, 1 h

Solaq ([1]; Table 4): Ruboxistaurin (0.029) mg/ml
Molecule: CN(C)C[C@@H]1CCn2cc(c3ccccc32)C2=C(C(=O)NC2=O)c2cn(c3ccccc23)CCO1 [Ruboxistaurin]

Molecule: Alexa-bevacizumab solution: Alexa Fluor 488 conjugated bevacizumab injected as solution (control)
Alexa-bevacizumab concentration in the vitreous [2]: 2.2 µg/mL

Transport across bovine cornea, times higher than celecoxib [3]: ~25 times | reduction in transport across cornea with taurine as an inhibitor [3]: > 50% | Transport across bovine conjunctiva, times higher than celecoxib [4]: ~4 times | Transport across bovine sclera-choroid-RPE, times higher than celecoxib [5]: ~20 times | reduction in transport across SCRPE with taurine as an inhibitor [5]: > 50% | binding/association constant (K, Ka) with melanin [7]: 7.39×10^3 M^−1 and 7.93 E3 M^−1 | melanin binding, fold lower than that of celecoxib ([7]; ITC): ~130 fold
Molecule: Cc1ccc(-c2cc(C(F)(F)F)nn2-c2ccc(S(=O)(=O)NC(=O)CCC(=O)NCCS(=O)(=O)O)cc2)cc1 [C-SA-T, celecoxib succinamidic acid taurine]
average vitreous-to-plasma protein ratio [6]: 0.28±0.06 | retinal FITC-dextran leakage (mean± s.d.) [8]: 23.64 ± 4.20 µL/g/min | Mean retinal leukocyte count (retinal leukostasis): 47±10

cumulative percentage transport [9]: 0.2% | Solaq ([1]; Table 1): Budesonide (0.02) mg/ml
Molecule: CCCC1O[C@@H]2C[C@H]3[C@@H]4CCC5=CC(=O)C=C[C@]5(C)[C@H]4[C@@H](O)C[C@]3(C)[C@]2(C(=O)CO)O1 (stereo partly drawn) [Budesonide]
VEGF secretion and mRNA expression (ARPE19 cells): capable of reducing

binding/association constant (K, Ka) with melanin [7]: 8.89×10^3 M^−1 and 8.89 E3 M^−1
Molecule: Cc1ccc(-c2cc(C(F)(F)F)nn2-c2ccc(S(=O)(=O)NC(=O)CCC(=O)O)cc2)cc1 [C-SA, Celecoxib succinamidic acid]
retinal FITC-dextran leakage (mean± s.d.) [8]: 93.66 ± 37.08 µL/g/min | Mean retinal leukocyte count (retinal leukostasis): 95±12

Molecule: Cc1ccc(-c2cc(C(F)(F)F)nn2-c2ccc(S(N)(=O)=O)cc2)cc1 [Celecoxib, reference compound]
Cumulative percent transport across bovine cornea [3, 13]: 0.017% | Transport across bovine conjunctiva [4, 13]: 3.9% | Transport across bovine sclera-choroid-RPE [5, 13]: approximately 0.1% | binding/association constant (K, Ka) with melanin [7]: 1.01×10^6 M^−1 and 1.01 E6 M^−1 | level in cornea, celecoxib compared with CSA [10]: higher than CSA | level in iris and CRPE, celecoxib compared with C-SA [10]: higher | level in periocular space, celecoxib compared with CSA [10]: lower than that of CSA | Solaq ([1]; Table 2): Celecoxib (0.005) mg/ml

contribution of active diffusion in BSA transport [11]: 0.5% | ex vivo drug level (pro-drug) in CRPE [12, 14]: 0.6 μg/g tissue | ex vivo drug level (pro-drug) in retina [12, 14]: 0.2 μg/g tissue | ex vivo drug level (pro-drug) in sclera [12, 14]: 1.9 μg/g tissue | ex vivo drug level (pro-drug) in vitreous [12, 14]: 0.05 μg/g tissue | ex vivo level of budesonide released from budesonide succinate in CRPE [12, 14]: 7.2 μg/g tissue | ex vivo level of budesonide released from budesonide succinate in retina [12, 14]: 2.2 μg/g tissue | ex vivo level of budesonide released from budesonide succinate in sclera [12, 14]: 11.0 μg/g tissue | ex vivo level of budesonide released from budesonide succinate in vitreous [12, 14]: 0.5 μg/g tissue | budesonide delivery in sclera, choroid-RPE and retina, higher with prodrug compared to plain drug budesonide ([12]; rat): 2-5 folds
Molecule: Succinic acid mono-budesonide ester [budesonide succinate]
